Laboratory results published in PubChem BioAssay AID2060892 (Molecular Pharmacology Branch, DTP, NCI, 2025).

Tested on: HOP-62 complex spheroids with HUVEC/MSC, viability
Experiment: Anticancer human tumor HOP-62 cell line growth inhibition [RAS];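 note: spheroids exposed to agents for seven days before readout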;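 for viability, T/C: 100% = DMSO vehicle control viability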
Details: for IC50: curve of first compound; for viability, T/C: stronger effect = lower value
Source text: RAS pathway inhibitors in Combinations in Complex Spheroids
A high-throughput screen of multi-cell type tumor spheroids was designed to identify active combinations of RAS pathway inhibitors and targeted small molecules. Complex spheroids include a stromal component modeled by human endothelial cells (HUVEC) and fibroblasts modeled by human mesenchymal stem cells (MSCs). The concentration ranges selected for each drug and investigational agent were based upon clinically achievable concentrations if the clinical Cmax of the agent was known.
Compounds. The drugs and investigational agents: abemaciclib (NSC768073), cobimetinib (NSC768068), divarasib (GDC6063, NSC841802), docetaxel (NSC628503), GDC-1971 (RLY-1971, NSC841576), gemcitabine (NSC613327), inavolisib (NSC800729), ipatasertib (NSC767898), KB-0742 (NSC834161), MRTX-1133 (NSC836407), osimertinib (NSC779217), RMC-4630 (NSC839698), RMC-6236 (NSC851965), RMC-6291 (NSC852671), Ro-3306 (NSC812927), sapanisertib (NSC764658), SN-38 (NSC673596), staurosporine (NSC755774), SY5609 (NSC837396), and tovorafenib (DAY101, NSC766906), were obtained from the National Cancer Institute (NCI) Developmental Therapeutics Program Chemical Repository. The FDA-approved anticancer drug set is available from the NCI Developmental Therapeutics Program. […] The stock solutions were prepared in dimethyl sulfoxide (DMSO, Sigma-Aldrich, St. Louis, MO, cat. D2650) at 800-fold the tested concentration and stored at -70 degrees C prior to their use. All drugs and investigational agents were tested over a range starting from a high concentration at or near the clinical Cmax and decreasing in half-log increments. If the clinical Cmax for an agent had not been determined, the highest concentration tested was 10 microM.
Cell Culture. All cells were maintained in an incubator at 37 degrees C and 5% CO2 with 95% humidity. The PDC lines were cultured according to standard operating procedures established by the NCI PDMR. All PDCs were thawed and cultured in Matrigel-coated flasks prepared with a working solution of 1X Ham's F-12 nutrient mix, without supplementation (Invitrogen, Waltham, MA, cat. 11765054), 100 U/mL penicillin-streptomycin (Invitrogen, cat. 15140122), and 2.5% Matrigel (Corning Inc., Corning, NY, cat. 354248) for the first three passages. The 362531-283-R-J2-PDC and 782815-120-R-J1-PDC lines were cultured in 6C/Colon 1B media, which includes advanced DMEM/F-12 (Thermo Fisher Scientific, cat. 12634028), 10 mM HEPES (Thermo Fisher Scientific, cat. 15630080), 1X GlutaMAX supplement (Thermo Fisher Scientific, cat. 35050061), 0.1 mg/mL primocin (InvivoGen, San Diego, CA, cat. ant-pm-2), 10% defined fetal bovine serum, heat inactivated (HyClone Laboratories Inc., Logan, UT, cat. SH30070.03HI), 50% L-WRN conditioned media (ATCC, cat. CRL-3276), 1.25 mM N-Acetyl-L-cysteine (Sigma-Aldrich, cat. A9165), 10 mM nicotinamide (Sigma-Aldrich, cat. N0636), 1X B-27 supplement (Thermo Fisher Scientific, cat. 17504044), 1X N-2 supplement (Thermo Fisher Scientific, cat. 17502048), 50 ng/mL human EGF (Thermo Fisher Scientific, cat. PHG0311), and 10 microM Y-27632 dihydrochloride (Tocris Bioscience, cat. 1254). The K12877-001-R-J1-PDC line was cultured in 6I media, which includes all 6C/Colon 1B media plus 10 ng/mL human FGF-10 (PeproTech, cat. 100-26), 1 ng/mL human FGF-2 (PeproTech, cat. 100-18B), 1 µM prostaglandin E2 (Tocris Bioscience, cat. 2296), […] hydrocortisone (Sigma-Aldrich, cat. H4001), and […] bovine insulin (Sigma-Aldrich, cat. I6634). The K86415-001-R-J1-PDC line was cultured in 6D media, which includes all 6C/Colon 1B media components minus the L-WRN conditioned media. The 485176-168-R4-J1-PDC was cultured in PANC media, which includes all 6C/Colon 1B media plus 100 ng/mL human FGF-10 (PeproTech, cat. 100-26), 500 nM SB-431542 (Selleckchem, cat. S1067), and 10 nM gastrin (Tocris Bioscience, cat. 3006). […]

SMILES: CC(C)n1nc(-c2ccc3oc(N)nc3c2)c2c(N)ncnc21 + C#Cc1c(F)ccc2cc(O)cc(-c3ncc4c(N5CC6CCC(C5)N6)nc(OCC56CCCN5CC(F)C6)nc4c3F)c12
- IC50 (second compound 0.0316 µM): 0.0278 µM
- IC50 (second compound 0.1 µM): 0.0281 µM
- IC50 (second compound 0.316 µM): 0.0195 µM
- IC50 (second compound 1 µM): 0.0124 µM
- IC50 (second compound 3.16 µM): 0.00375 µM
- IC50 (second compound 10 µM): < 0.000316 µM
- viability, T/C (second compound 0.0316 µM, first compound 0.000316 µM): 99.2%
- viability, T/C (second compound 0.0316 µM, first compound 0.001 µM): 99%
- viability, T/C (second compound 0.0316 µM, first compound 0.00316 µM): 86.8%
- viability, T/C (second compound 0.0316 µM, first compound 0.01 µM): 73.7%
- viability, T/C (second compound 0.0316 µM, first compound 0.0316 µM): 46.3%
- viability, T/C (second compound 0.0316 µM, first compound 0.1 µM): 28.3%
- viability, T/C (second compound 0.1 µM, first compound 0.000316 µM): 110%
- viability, T/C (second compound 0.1 µM, first compound 0.001 µM): 94.9%
- viability, T/C (second compound 0.1 µM, first compound 0.00316 µM): 83.9%
- viability, T/C (second compound 0.1 µM, first compound 0.01 µM): 69.6%
- viability, T/C (second compound 0.1 µM, first compound 0.0316 µM): 46.9%
- viability, T/C (second compound 0.1 µM, first compound 0.1 µM): 26.7%
- viability, T/C (second compound 0.316 µM, first compound 0.000316 µM): 106%
- viability, T/C (second compound 0.316 µM, first compound 0.001 µM): 99.3%
- viability, T/C (second compound 0.316 µM, first compound 0.00316 µM): 79.3%
- viability, T/C (second compound 0.316 µM, first compound 0.01 µM): 63.1%
- viability, T/C (second compound 0.316 µM, first compound 0.0316 µM): 41.1%
- viability, T/C (second compound 0.316 µM, first compound 0.1 µM): 26.5%
- viability, T/C (second compound 1 µM, first compound 0.000316 µM): 106%
- viability, T/C (second compound 1 µM, first compound 0.001 µM): 89.7%
- viability, T/C (second compound 1 µM, first compound 0.00316 µM): 70%
- viability, T/C (second compound 1 µM, first compound 0.01 µM): 54.6%
- viability, T/C (second compound 1 µM, first compound 0.0316 µM): 36.1%
- viability, T/C (second compound 1 µM, first compound 0.1 µM): 26.6%
- viability, T/C (second compound 3.16 µM, first compound 0.000316 µM): 76.9%
- viability, T/C (second compound 3.16 µM, first compound 0.001 µM): 67.2%
- viability, T/C (second compound 3.16 µM, first compound 0.00316 µM): 47.6%
- viability, T/C (second compound 3.16 µM, first compound 0.01 µM): 37.5%
- viability, T/C (second compound 3.16 µM, first compound 0.0316 µM): 35.6%
- viability, T/C (second compound 3.16 µM, first compound 0.1 µM): 14.4%
- viability, T/C (second compound 10 µM, first compound 0.000316 µM): 45.7%
- viability, T/C (second compound 10 µM, first compound 0.001 µM): 32.8%
- viability, T/C (second compound 10 µM, first compound 0.00316 µM): 28.2%
- viability, T/C (second compound 10 µM, first compound 0.01 µM): 21.6%
- viability, T/C (second compound 10 µM, first compound 0.0316 µM): 13%
- viability, T/C (second compound 10 µM, first compound 0.1 µM): 11.6%
